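Compound exposure: 48 hours, 5 concentrations, 96-well plates. The concentration for full growth arrest is given as TGI.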
What was measured:
Test in all cases: inhibition of tumour cell growth, NCI panel, 48 h
HCT-116 colon = tested on: HCT-116 colon
SF-539 CNS = tested on: SF-539 CNS
SN12C renal = tested on: SN12C renal
SNB-75 CNS = tested on: SNB-75 CNS
K-562 leukemia = tested on: K-562 leukemia
CAKI-1 renal = tested on: CAKI-1 renal
SK-MEL-2 melanoma = tested on: SK-MEL-2 melanoma
SF-268 CNS = tested on: SF-268 CNS
HCC-2998 colon = tested on: HCC-2998 colon
SK-MEL-5 melanoma = tested on: SK-MEL-5 melanoma
UACC-62 melanoma = tested on: UACC-62 melanoma
SK-MEL-28 melanoma = tested on: SK-MEL-28 melanoma
ACHN renal = tested on: ACHN renal
T-47D breast = tested on: T-47D breast
EKVX NSCLC = tested on: EKVX NSCLC
UO-31 renal = tested on: UO-31 renal
M14 melanoma = tested on: M14 melanoma
786-0 renal = tested on: 786-0 renal
PC-3 prostate = tested on: PC-3 prostate
A549 NSCLC = tested on: A549 NSCLC
NCI-H460 lung = tested on: NCI-H460 lung
DU-145 prostate = tested on: DU-145 prostate
HCT-15 colon = tested on: HCT-15 colon
SNB-19 CNS = tested on: SNB-19 CNS
LOX IMVI melanoma = tested on: LOX IMVI melanoma
HS 578T breast = tested on: HS 578T breast
HOP-62 NSCLC = tested on: HOP-62 NSCLC
NCI-H522 lung = tested on: NCI-H522 lung
UACC-257 melanoma = tested on: UACC-257 melanoma
KM12 colon = tested on: KM12 colon
BT-549 breast = tested on: BT-549 breast
RPMI-8226 leukemia = tested on: RPMI-8226 leukemia
COLO 205 colon = tested on: COLO 205 colon
NCI-H226 lung = tested on: NCI-H226 lung
SW-620 colon = tested on: SW-620 colon
SF-295 CNS = tested on: SF-295 CNS
OVCAR-5 ovarian = tested on: OVCAR-5 ovarian
MDA-MB-231 breast = tested on: MDA-MB-231 breast
A498 renal = tested on: A498 renal
NCI/ADR-RES ovarian = tested on: NCI/ADR-RES ovarian
CCRF-CEM leukemia = tested on: CCRF-CEM leukemia
MALME-3M melanoma = tested on: MALME-3M melanoma
MCF7 breast = tested on: MCF7 breast
IGROV1 ovarian = tested on: IGROV1 ovarian
MDA-MB-435 = tested on: MDA-MB-435
OVCAR-8 ovarian = tested on: OVCAR-8 ovarian
SR leukemia = tested on: SR leukemia
HOP-92 NSCLC = tested on: HOP-92 NSCLC
HT29 colon = tested on: HT29 colon
MDA-N = tested on: MDA-N
MOLT-4 leukemia = tested on: MOLT-4 leukemia
TK-10 renal = tested on: TK-10 renal
OVCAR-3 ovarian = tested on: OVCAR-3 ovarian
SK-OV-3 ovarian = tested on: SK-OV-3 ovarian
OVCAR-4 ovarian = tested on: OVCAR-4 ovarian
U251 CNS = tested on: U251 CNS
HL-60(TB) leukemia = tested on: HL-60(TB) leukemia
NCI-H23 lung = tested on: NCI-H23 lung
RXF 393 renal = tested on: RXF 393 renal

O=c1c(F)cn(Cc2c(Cl)cccc2Cl)c(=O)n1Cc1c(Cl)cccc1Cl
TGI (HCT-116 colon): > 31.6 µM
TGI (SF-539 CNS): > 31.6 µM
TGI (SN12C renal): > 31.6 µM
TGI (SNB-75 CNS): > 31.6 µM
TGI (K-562 leukemia): > 31.6 µM
TGI (CAKI-1 renal): > 31.6 µM
TGI (SK-MEL-2 melanoma): > 31.6 µM
TGI (SF-268 CNS): > 31.6 µM
TGI (HCC-2998 colon): > 31.6 µM
TGI (SK-MEL-5 melanoma): > 31.6 µM
TGI (UACC-62 melanoma): > 31.6 µM
TGI (SK-MEL-28 melanoma): > 31.6 µM
TGI (ACHN renal): > 31.6 µM
TGI (T-47D breast): > 31.6 µM
TGI (EKVX NSCLC): > 31.6 µM
TGI (UO-31 renal): > 31.6 µM
TGI (M14 melanoma): > 31.6 µM
TGI (786-0 renal): > 31.6 µM
TGI (PC-3 prostate): > 31.6 µM
TGI (A549 NSCLC): > 31.6 µM
TGI (NCI-H460 lung): > 31.6 µM
TGI (DU-145 prostate): > 100 µM
TGI (HCT-15 colon): > 31.6 µM
TGI (SNB-19 CNS): > 100 µM
TGI (LOX IMVI melanoma): > 31.6 µM
TGI (HS 578T breast): > 31.6 µM
TGI (HOP-62 NSCLC): > 31.6 µM
TGI (NCI-H522 lung): > 31.6 µM
TGI (UACC-257 melanoma): > 31.6 µM
TGI (KM12 colon): > 31.6 µM
TGI (BT-549 breast): > 31.6 µM
TGI (RPMI-8226 leukemia): > 31.6 µM
TGI (COLO 205 colon): > 31.6 µM
TGI (NCI-H226 lung): > 100 µM
TGI (SW-620 colon): > 31.6 µM
TGI (SF-295 CNS): > 31.6 µM
TGI (OVCAR-5 ovarian): > 31.6 µM
TGI (MDA-MB-231 breast): > 31.6 µM
TGI (A498 renal): > 31.6 µM
TGI (NCI/ADR-RES ovarian): > 31.6 µM
TGI (CCRF-CEM leukemia): > 31.6 µM
TGI (MALME-3M melanoma): > 31.6 µM
TGI (MCF7 breast): > 31.6 µM
TGI (IGROV1 ovarian): > 31.6 µM
TGI (MDA-MB-435): > 31.6 µM
TGI (OVCAR-8 ovarian): > 31.6 µM
TGI (SR leukemia): > 31.6 µM
TGI (HOP-92 NSCLC): > 31.6 µM
TGI (HT29 colon): > 31.6 µM
TGI (MDA-N): > 31.6 µM
TGI (MOLT-4 leukemia): > 31.6 µM
TGI (TK-10 renal): > 31.6 µM
TGI (OVCAR-3 ovarian): > 31.6 µM
TGI (SK-OV-3 ovarian): > 31.6 µM
TGI (OVCAR-4 ovarian): > 31.6 µM
TGI (U251 CNS): > 31.6 µM
TGI (HL-60(TB) leukemia): > 31.6 µM
TGI (NCI-H23 lung): > 31.6 µM
TGI (RXF 393 renal): > 31.6 µM
